According to US6998407B2, “Antagonists of MCP-1 function and methods of use thereof” (Telik, Inc., priority 2001, dated 2006):

Assays:
male Wistar rats = assay: Anti-Thy-1 antibody induced nephritis model; type: in vivo; conditions: 1 mg/kg subcutaneous, 2 h before, immediately after, 5 h after anti-Thy-1 antibody, then twice a day for 2 days
Procedure: The efficacy of the compounds of the present invention was also evaluated in an animal model of nephritis. This model simulates very closely the conditions found in human mesangial proliferative glomerulonephritis.
Anti-Thy-1 nephritis was induced by intravenous injection of anti-Thy-1-antibody to male Wistar rats. The test compound was subcutaneously administered 2 h before, immediately after, and 5 h after the anti-Thy-1 antibody treatment, and then twice a day for the following 2 days. Anti-MCP-1 antibody was intraperitoneally injected once a day for 3 days. Seven days after the anti-Thy-1 antibody treatment, the rats were sacrificed. The kidneys were perfused with 10% formaldehyde in PBS, surgically removed, and immersed in 10% formaldehyde. The kidneys were then embedded in paraffin for glomerular histopathology or in OCT compound Miles Inc., Elkhart, Ind.) in liquid nitrogen after immersion in 30% sucrose overnight. Immunohistochemical staining was performed with a mouse anti-rat ED-1 monoclonal antibody. Briefly, […] renal sections were prepared and endogenous peroxidase blocked with 0.3% hydrogen peroxide. The sections were then blocked with Protein Block (DAKO, Japan) and stained with anti-ED-1 antibody for 45 min. […] The amount of urinary protein was determined with the DC protein assay kit (Bio-Rad, Hercules, Calif.). […]

ICR male mice = assay: Thioglycollate-induced inflammation model; type: in vivo; conditions: peritoneal cavity, 96 h after thioglycollate; 10 mg/kg subcutaneous at 0 h, 3 h and 16 h
Procedure: 3% Brewer's thioglycollate broth (Difco, Detroit, Mich.) was injected into the peritoneal cavity of ICR male mice, followed by subcutaneous administration of the same dose of test compound after 0 h, 3 h and 16 hours post-thioglycollate injection, respectively. After 96 h, the number of total elicited cells and MOMA2-positive cells in the peritoneal cavity was analyzed using a flowcytometer (EPICS XL, Beckman Coulter).

| Structure (SMILES) | Urinary Protein (male Wistar rats) [mg/day] | MOMA2-positive Cells (ICR male mice) | Total Cells (ICR male mice) |
| --- | --- | --- | --- |
| O=C(NC(=O)c1ccc2ncoc2c1)Nc1ccc(Cl)c(Cl)c1 [Compound 80, Benzoxazol-6-yl-N-{[(3,4-dichlorophenyl)amino]carbonyl}carboxamide] | 162.1 ± 42.6 | – | – |
| O=C(NC(=O)c1ccc2c(c1)OCO2)Nc1cccc(C(F)(F)F)c1 [Compound 16, 2H-Benzo[3,4-d]1,3-dioxolen-5-yl-N-({[3-(trifluoromethyl)phenyl]amino}carbonyl)carboxamide] | – | 7.5 ± 1.6 × 10^6 | 8.8 ± 1.5 × 10^6 |
| O=C(NC(=O)c1ccc2ncoc2c1)Nc1ccc(C(F)(F)F)cc1 [Compound 82, Benzoxazol-6-yl-N-({[4-(trifluoromethyl)phenyl]amino}carbonyl)carboxamide] | – | 3.2 ± 0.4 × 10^6 | 4.2 ± 0.4 × 10^6 |
